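Cultured in 96-well plates, cells were exposed to test compound for 48 hours across five concentrations. GI50 = concentration required for 50% inhibition of growth. TGI: total growth inhibition.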
Columns and labels:
Assay in all cases: DTP human tumour cell line panel, 48 h
U251 CNS = system: U251 CNS
LOX IMVI melanoma = system: LOX IMVI melanoma
MDA-MB-435 = system: MDA-MB-435
A549 NSCLC = system: A549 NSCLC
UACC-257 melanoma = system: UACC-257 melanoma
KM12 colon = system: KM12 colon
M14 melanoma = system: M14 melanoma
NCI-H460 lung = system: NCI-H460 lung
PC-3 prostate = system: PC-3 prostate
RPMI-8226 leukemia = system: RPMI-8226 leukemia

SMILES | TGI (U251 CNS) [µM] | TGI (LOX IMVI melanoma) [µM] | TGI (MDA-MB-435) [µM] | TGI (A549 NSCLC) [µM] | TGI (UACC-257 melanoma) [µM] | TGI (KM12 colon) [µM] | TGI (M14 melanoma) [µM] | TGI (NCI-H460 lung) [µM] | TGI (PC-3 prostate) [µM] | TGI (RPMI-8226 leukemia) [µM] | GI50 (U251 CNS) [µM] | GI50 (LOX IMVI melanoma) [µM] | GI50 (RPMI-8226 leukemia) [µM] | GI50 (MDA-MB-435) [µM] | GI50 (A549 NSCLC) [µM] | GI50 (UACC-257 melanoma) [µM] | GI50 (KM12 colon) [µM] | GI50 (NCI-H460 lung) [µM] | GI50 (PC-3 prostate) [µM]
O=c1[nH]c(=O)n(COCc2ccccc2)c2ccccc12 | > 100 | > 100 | > 100 | > 100 | > 100 | > 100 | > 100 | > 100 | > 100 | – | – | – | – | – | – | – | – | – | –
Cc1cc2oc3c(ccc(=O)n3C)c(=O)c2c(C)c1Cl | > 100 | > 100 | > 100 | > 100 | – | > 100 | 81.8 | > 100 | > 100 | – | – | – | – | – | – | – | – | – | –
O=C1c2cccnc2-c2nccc3c2c1nc1ccc(Br)cc13 | 0.147 | 0.0806 | 0.257 | 0.387 | 0.169 | 0.207 | 0.0773 | 0.125 | 0.234 | – | – | – | – | – | – | – | – | – | –
O=C(NNS(=O)(=O)c1ccccc1)c1csc(NC(=S)NC2CCCCC2)n1 | > 100 | 33.9 | 43.3 | > 100 | 53.8 | > 100 | > 100 | – | > 100 | > 100 | – | – | – | – | – | – | – | – | –
C=CCOCn1ccc(N)nc1=O | – | > 100 | > 100 | > 100 | > 100 | > 100 | > 100 | – | > 100 | > 100 | – | – | – | – | – | – | – | – | –
COc1cccc([C@@H]2CC(=O)c3cc4c(cc3N2)OCO4)c1 | > 100 | > 100 | > 100 | > 100 | > 100 | > 100 | > 100 | – | > 100 | > 100 | – | – | – | – | – | – | – | – | –
COc1ccc(C2=NNC(c3cc4cc(Br)ccc4nc3Cl)C2)cc1 (stereo unspecified) | – | – | > 25 | – | > 25 | > 25 | > 25 | > 25 | > 25 | > 25 | – | – | – | – | – | – | – | – | –
Cc1ccc(N=C2SC(=NN(C)C)SC2=Nc2ccc(C)cc2)cc1 | > 100 | > 100 | > 100 | > 100 | > 100 | > 100 | – | > 100 | > 100 | > 100 | – | – | – | – | – | – | – | – | –
N#CCc1nc2cc(C(F)(F)F)ccc2s1 | > 100 | 80.2 | > 100 | – | > 100 | > 100 | – | – | – | > 100 | – | – | – | – | – | – | – | – | –
CC1=CC(=O)/C(=C/n2c(=S)[nH]c3cc(C)ccc32)C(=O)O1 | > 100 | > 100 | > 100 | > 100 | > 100 | > 100 | > 100 | > 100 | > 100 | – | – | – | – | – | – | – | – | – | –
Cn1c(COC(=O)NC2CCCCC2)c(COC(=O)NC2CCCCC2)c2ccc3cc(C=O)ccc3c21 | 87.5 | > 100 | > 100 | > 100 | > 100 | > 100 | > 100 | – | > 100 | – | – | – | – | – | – | – | – | – | –
Cc1ccc2c(=O)cc(Cc3csc4ccccc34)[nH]c2n1 | > 100 | 40.6 | > 100 | > 100 | > 100 | > 100 | > 100 | – | > 100 | > 100 | – | – | – | – | – | – | – | – | –
O=C(CSCC(=O)N/N=C\c1ccccc1F)N/N=C\c1ccccc1F | > 100 | > 100 | > 100 | > 100 | > 100 | > 100 | > 100 | > 100 | – | > 100 | – | – | – | – | – | – | – | – | –
COc1cc(/C(=C2/O[C@@H]([C@H]3COC(C)(C)O3)[C@H]3OC(C)(C)O[C@@H]23)c2ccc3c(c2)OCO3)cc(OC)c1OC | > 25 | > 25 | > 25 | > 25 | > 25 | > 25 | – | > 25 | > 25 | > 25 | > 25 | > 25 | > 25 | > 25 | > 25 | > 25 | > 25 | > 25 | > 25
C[N+]1([O-])[C@H]2CC(OC(=O)[C@H](CO)c3ccccc3)C[C@H]1[C@H]1O[C@H]12 (stereo partly specified) | > 100 | > 100 | > 100 | > 100 | > 100 | > 100 | > 100 | – | > 100 | > 100 | – | – | – | – | – | – | – | – | –
CS(=O)(=O)OCC1CCCCCCCCCCC12SCCCS2 (stereo unspecified) | > 100 | > 100 | > 100 | > 100 | > 100 | > 100 | > 100 | > 100 | > 100 | – | – | – | – | – | – | – | – | – | –
O=C1CC(C(COCc2ccccc2)OCc2ccccc2)CC(=O)N1 (stereo unspecified) | > 100 | > 100 | > 100 | > 100 | > 100 | > 100 | > 100 | – | > 100 | > 100 | – | – | – | – | – | – | – | – | –
Cc1cn([C@@H]2C[C@H](CO)[C@@H]2O)c(=O)[nH]c1=O | > 100 | > 100 | > 100 | > 100 | > 100 | > 100 | – | > 100 | > 100 | > 100 | – | – | – | – | – | – | – | – | –
COc1cc(S(=O)(=O)Nc2ccc(-c3csc(N4C(=O)C(C)SC4c4ccccc4)n3)cc2)ccc1Cl (stereo unspecified) | – | > 100 | > 100 | > 100 | > 100 | > 100 | > 100 | – | > 100 | > 100 | – | – | – | – | – | – | – | – | –

Source: PubChem BioAssay (NCI)
